PMC6214665 (Bioorganic & medicinal chemistry letters, 2017)

Experiments:
[1] = MRC5 cell proliferation counterscreen; format: cell-based; details: human, MRC5 cells, MRC5 EC50, cytotoxicity, human cell line
T. brucei = T. brucei cell proliferation assay; format: cell-based, Trypanosoma brucei
T. cruzi = T. cruzi cell proliferation assay; format: cell-based; details: Trypanosoma cruzi, read-out: T. cruzi EC50, mean ± SD; n = 4

Row | Structure (SMILES) | EC50 [1] [µM] | other results
1 | Cc1noc(C)c1-c1ccc2[nH]c(=O)nc(-c3ccccc3)c2c1 [Compound 23] | > 50 | –
2 | O=c1nc(C2CCC2)c2cc(-c3cc[nH]n3)ccc2[nH]1 [Compound 42] | > 50 | fold loss of potency in T. brucei assay (T. brucei; relative to C4-phenyl analog 24): ~6 fold
3 | O=c1nc(-c2ccccc2)c2cc(-c3ccc(C(F)(F)F)nc3)ccc2[nH]1 [Compound 10] | > 50 | –
4 | Cc1ccc(-c2ccc3[nH]c(=O)nc(-c4ccccc4)c3c2)cn1 [Compound 7] | > 50 | –
5 | Cn1ccc(-c2cccc3[nH]c(=O)nc(-c4ccccc4)c23)n1 [Compound 33] | > 50 | –
6 | O=c1nc(-c2ccccc2)c2cc(N3CCOCC3)ccc2[nH]1 [Compound 38] | > 50 | –
7 | CN1CCN(c2ccc3[nH]c(=O)nc(-c4ccccc4)c3c2)CC1 [Compound 36] | > 50 | –
8 | N#Cc1ccc(-c2cccc3[nH]c(=O)nc(-c4ccccc4)c23)cc1 [Compound 34] | > 50 | –
9 | Cn1cc(-c2ccc3[nH]c(=O)nc(-c4ccccc4)c3c2)cn1 [Compound 26] | > 50 | –
10 | O=c1nc(-c2ccccc2)c2cc(-c3cnc4ccccc4c3)ccc2[nH]1 [Compound 13] | > 50 | EC50 (T. cruzi): < 10 µM
11 | O=c1nc(-c2ccccc2)c2cc(-c3cncnc3)ccc2[nH]1 [Compound 22] | > 50 | –
12 | Cc1ccc2[nH]c(=O)nc(-c3ccccc3)c2c1 [Compound 35] | > 50 | –
13 | O=c1nc(-c2ccccc2)c2cc(-c3cc[nH]n3)ccc2[nH]1 [Compound 24] | > 50 | –
14 | O=c1nc(-c2ccccc2)c2cc(-c3cccc(F)c3)ccc2[nH]1 [Compound 16] | > 50 | EC50 (T. cruzi): < 10 µM
15 | O=c1nc(-c2ccccc2)c2cc(-c3ccncc3)ccc2[nH]1 [Compound 1] | > 50 | –
16 | CNC(=O)c1cccc(-c2ccc3[nH]c(=O)nc(-c4ccccc4)c3c2)c1 [Compound 19] | > 50 | –
17 | O=c1nc(-c2ccccc2)c2ccc(-c3cccnc3)cc2[nH]1 [Compound 29] | > 50 | –
18 | Cc1ccccc1-c1nc(=O)[nH]c2ccc(-c3cc[nH]n3)cc12 [Compound 39] | > 50 | EC50 (T. cruzi): < 10 µM
19 | O=c1nc(-c2ccccc2)c2cc(-c3ccc(F)cc3)ccc2[nH]1 [Compound 17] | > 50 | EC50 (T. cruzi): < 10 µM
20 | O=c1nc(-c2ccccc2)c2ccc(-c3cccc(N4CCOCC4)c3)cc2[nH]1 [Compound 31] | > 50 | –

Row | Structure (SMILES) | EC50 [1] [µM] | other results
21 | O=c1nc(-c2ccccc2)c2ccc(-c3ccncc3)cc2[nH]1 [Compound 28] | > 50 | –
22 | O=c1nc(-c2ccccc2)c2cc(-c3cccc(N4CCOCC4)c3)ccc2[nH]1 [Compound 20] | > 50 | –
23 | O=c1nc(-c2ccccc2)c2cc(-c3ccc(N4CCCC4)nc3)ccc2[nH]1 [Compound 12] | > 50 | EC50 (T. cruzi): < 10 µM
24 | COc1ccccc1-c1nc(=O)[nH]c2ccc(-c3cc[nH]n3)cc12 [Compound 40] | > 50 | –
25 | Cn1nccc1-c1ccc2[nH]c(=O)nc(-c3ccccc3)c2c1 [Compound 27] | > 50 | –
26 | CN(C)c1ccc(-c2ccc3[nH]c(=O)nc(-c4ccccc4)c3c2)cn1 [Compound 11] | > 50 | –
27 | N#Cc1ccc(-c2ccc3[nH]c(=O)nc(-c4ccccc4)c3c2)cc1 [Compound 18] | > 50 | –
28 | O=c1nc(-c2ccccc2)c2ccc(-c3cncnc3)cc2[nH]1 [Compound 30] | > 50 | –
29 | Cc1cc(-c2ccc3[nH]c(=O)nc(-c4ccccc4)c3c2)ccn1 [Compound 5] | > 50 | fold loss of potency in T. brucei assay (T. brucei; relative to 1): < 3 fold
30 | O=c1nc(-c2ccccc2)c2ccc(-c3ccc(F)cc3)cc2[nH]1 [Compound 32] | > 50 | –
31 | O=c1nc(-c2ccccc2)c2cc(-c3cccnc3)ccc2[nH]1 [Compound 6] | > 50 | –
32 | O=c1nc(-c2ccccc2)c2cc(-c3ccccc3)ccc2[nH]1 [Compound 14] | > 50 | fold loss of potency in T. brucei assay (T. brucei; relative to 1): ~ 2.5 fold
33 | Cc1cncc(-c2ccc3[nH]c(=O)nc(-c4ccccc4)c3c2)c1 [Compound 9] | > 50 | EC50 (T. cruzi): < 10 µM
34 | O=c1nc(C2CCCCC2)c2cc(-c3cc[nH]n3)ccc2[nH]1 [Compound 41] | > 50 | –
35 | O=c1nc(-c2ccccc2)c2cc(-c3cn[nH]c3)ccc2[nH]1 [Compound 25] | – | EC50 (T. cruzi): < 10 µM
36 | O=c1nc(-c2ccccc2)c2cc(N3CCNCC3)ccc2[nH]1 [Compound 37] | > 25 | –
37 | O=c1nc(-c2ccccc2)c2cc(-c3ccc(N4CCOCC4)cc3)ccc2[nH]1 [Compound 21] | – | EC50 (T. cruzi): < 10 µM
38 | Cc1ccncc1-c1ccc2[nH]c(=O)nc(-c3ccccc3)c2c1 [Compound 8] | > 50 | EC50 (T. cruzi): < 10 µM
39 | O=c1nc(-c2ccccc2)c2cc(-c3ccccc3F)ccc2[nH]1 [Compound 15] | > 50 | EC50 (T. cruzi): < 10 µM
